This is an account of results in patent US20240390377A1, “COMPOSITION FOR THE PREVENTION OR TREATMENT OF NEURODEGENERATIVE OR MOTOR NEURON DISEASES COMPRISING HALOFUGINONE AS AN ACTIVE INGREDIENT” (CURAMYS CO., LTD., priority 2022, published 2024).

The subject of this test is C2C12 cells. As to the kind of experiment: Real-time qRT-PCR analysis of C2C12 myoblasts (TGF-β1 stimulation, halofuginone treatment). The format is cell-based, mouse. Particulars: low (5 ng/ml) or high (10 ng/ml) concentration halofuginone, 24 h (FIG. 4a). As to the method: Specifically, C2C12 cells (CRL-1772) were purchased from the American Type Culture Collection (ATCC) and maintained in DMEM medium (Welgene) containing 10% (v/v) fetal bovine serum (FBS; Gibco) and 1% penicillin-streptomycin (P/S; Gibco) at 37° C. under 5% CO2 conditions. The C2C12 cells were seeded in 6-well plates at a density of 3×10^5 cells per well and allowed to adhere for 24 hours. Subsequently, the medium was replaced with serum-free medium after 24 hours, followed by stimulation with 5 ng/ml rhTGF-β1 (recombinant human TGF-β1; R&D Systems). After stimulation, the cells were treated with various concentrations (0 [control], or 1, 2.5, 5 [low dose], 10 [high dose], 20, 50, 100 ng/ml) of halofuginone (Sigma) in serum-free medium for 24 hours.
Specifically, total RNA was isolated from C2C12 cells in Example 1, fibroblasts in Example 5, and the lumbar spinal cord of mice in Example 6 using the FavorPrep™ Tri-RNA Reagent (Favorgen). The lumbar spinal cord was isolated from the mouse in Example 6 and stored frozen at −80° C. until the experiment. The concentration of total RNA was measured at 260 nm absorbance using a spectrophotometer (NanoDrop Spectrophotometer ND-2000, Thermo Scientific). cDNA was synthesized from 1 μg of total RNA using the ReverTra Ace-α™ (Toyobo) according to the manufacturers protocol. Quantitative RT-PCR was performed using the SYBR Green ExcelTaq™ 2× Fast Q-PCR Master Mix (TQ1200, Smobio) on a thermocycler (CFX Connect Real-Time PCR Detection System, BIO-RAD) with the primers listed in Table 3 below. Fluorescence data were analyzed with Bio-Rad CFX Manager 3.1 software, and control versus relative mRNA expression was calculated by the 2AT) method. Experiments were performed four times on all samples. All primers were designed using Primer3 online software, and GAPDH was used as a control group.
Specifically, after treating C2C12 cells with TGF-β1 for 24 hours as in Example 1, real-time qRT-PCR was performed in the same manner as in Example 11 to confirm TGF-β1, 2 and 3, α-SMA and MyoD mRNA expression (FIG. 2a), and Western blot analysis was performed in the same manner as in Example 12 to confirm autocrine expression of TGF-β1 and MyoD protein and α-SMA (FIG. 2b).
Specifically, as in Example 1, C2C12 cells were stimulated with TGF-β1 for 24 hours, and then halofuginone was treated for 24 hours, and real-time qRT-PCR was performed in the same manner as in Example 11 to confirm TGF-β1, α-SMA, MyoD, and collagen I (Col-I) mRNA expression (FIG. 4a). In addition, Western blot analysis was performed in the same manner as in Example 12 to confirm TGF-β1, α-SMA, MyoD, and collagen I protein expression (FIG. 4b). In addition, immunocytochemical analysis was performed in the same manner as in Example 3 to confirm α-SMA and MyoD expression (FIG. 4c).
On the technique in general: Real-time PCR tracks product formation cycle by cycle.

Turning to `O=C(C[C@H]1NCCC[C@@H]1O)Cn1cnc2cc(Br)c(Cl)cc2c1=O` (racemic) [halofuginone], the “decrease in MyoD mRNA level by TGF-β1 stimulation” value was “significantly recovered”, the “increase in TGF-β1 mRNA level by TGF-β1 stimulation” value is reported as “significantly reduced”, the “increase in collagen I mRNA level by TGF-β1 stimulation” value was “significantly reduced” and the “increase in α-SMA mRNA level by TGF-β1 stimulation” value is given as “significantly reduced”.
